From the supplement of paper PMC10307832

What was measured:
Assay in all cases: relative viability (nuclei count vs DMSO), 5 days (fraction); higher = more cells survive
EPLC-272H = test system: EPLC-272H
Procedure, shortened: (§1)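 Cells from lung cancer lines were seeded into 1536-well plates and, one day later, dosed by pin tool. Treatments were either a single drug or a fixed dose of an anchor drug with five library-drug doses (not always all listed) in √10 steps. After 5 days, nuclei were stained in a one-step fixation (final 0.05% Triton X-100, 1% formaldehyde, 1 ug/ml Hoechst) and counted on 4× images, and relative viability is the treated-to-vehicle nuclei ratio, as the median of duplicate plates.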

HCC-78 = test system: HCC-78
Procedure, shortened: as §1

CAL-12T = test system: CAL-12T
Procedure, shortened: as §1

HCC-15 = test system: HCC-15
Procedure, shortened: as §1

NCI-H358 = test system: NCI-H358
Procedure, shortened: as §1

ABC-1 = test system: ABC-1
Procedure, shortened: as §1

NCI-H2126 = test system: NCI-H2126
Procedure, shortened: as §1

LXF-289 = test system: LXF-289
Procedure, shortened: as §1

NCI-H441 = test system: NCI-H441
Procedure, shortened: as §1

NCI-H1975 = test system: NCI-H1975
Procedure, shortened: as §1

COR-L 105 = test system: COR-L 105
Procedure, shortened: as §1

NCI-H1915 = test system: NCI-H1915
Procedure, shortened: as §1

NCI-H2085 = test system: NCI-H2085
Procedure, shortened: as §1

UMC-11 = test system: UMC-11
Procedure, shortened: as §1

ChaGo-K-1 = test system: ChaGo-K-1
Procedure, shortened: as §1

NCI-H3122 = test system: NCI-H3122
Procedure, shortened: as §1

NCI-H322M = test system: NCI-H322M
Procedure, shortened: as §1

NCI-H1993 = test system: NCI-H1993
Procedure, shortened: as §1

HOP-62 = test system: HOP-62
Procedure, shortened: as §1

NCI-H2023 = test system: NCI-H2023
Procedure, shortened: as §1

NCI-H1755 = test system: NCI-H1755
Procedure, shortened: as §1

EMC-BAC-2 = test system: EMC-BAC-2
Procedure, shortened: as §1

NCI-H1666 = test system: NCI-H1666
Procedure, shortened: as §1

O=C(O)c1ccc(-c2c[nH]c3ncc(-c4ccccc4)cc23)cc1C1CCCC1 + Cc1cc(Nc2cc(N3CCN(C)CC3)nc(Sc3ccc(NC(=O)C4CC4)cc3)n2)n[nH]1 [Tozasertib] (partner 0.1 µM)
relative viability (EPLC-272H; first compound 0.04 µM): 0.295
relative viability (EPLC-272H; first compound 0.1265 µM): 0.313
relative viability (EPLC-272H; first compound 0.4 µM): 0.274
relative viability (EPLC-272H; first compound 1.265 µM): 0.0995
relative viability (HCC-78; first compound 0.1265 µM): 0.468
relative viability (HCC-78; first compound 0.4 µM): 0.405
relative viability (HCC-78; first compound 1.265 µM): 0.345
relative viability (CAL-12T; first compound 0.04 µM): 0.314
relative viability (CAL-12T; first compound 0.1265 µM): 0.374
relative viability (CAL-12T; first compound 0.4 µM): 0.315
relative viability (CAL-12T; first compound 1.265 µM): 0.337
relative viability (HCC-15; first compound 0.04 µM): 0.403
relative viability (HCC-15; first compound 0.1265 µM): 0.502
relative viability (HCC-15; first compound 0.4 µM): 0.307
relative viability (HCC-15; first compound 1.265 µM): 0.151
relative viability (NCI-H358; first compound 0.04 µM): 0.0826
relative viability (NCI-H358; first compound 0.1265 µM): 0.107
relative viability (NCI-H358; first compound 0.4 µM): 0.0884
relative viability (NCI-H358; first compound 1.265 µM): 0.0978
relative viability (ABC-1; first compound 0.04 µM): 0.2
relative viability (ABC-1; first compound 0.1265 µM): 0.192
relative viability (ABC-1; first compound 0.4 µM): 0.147
relative viability (ABC-1; first compound 1.265 µM): 0.18
relative viability (NCI-H2126; first compound 0.04 µM): 0.84
relative viability (NCI-H2126; first compound 0.1265 µM): 0.833
relative viability (NCI-H2126; first compound 0.4 µM): 0.868
relative viability (NCI-H2126; first compound 1.265 µM): 0.644
relative viability (LXF-289; first compound 0.04 µM): 0.229
relative viability (LXF-289; first compound 0.1265 µM): 0.187
relative viability (LXF-289; first compound 0.4 µM): 0.126
relative viability (LXF-289; first compound 1.265 µM): 0.143
relative viability (NCI-H441; first compound 0.04 µM): 0.71
relative viability (NCI-H441; first compound 0.1265 µM): 0.638
relative viability (NCI-H441; first compound 0.4 µM): 0.548
relative viability (NCI-H441; first compound 1.265 µM): 0.325
relative viability (NCI-H1975; first compound 0.04 µM): 0.681
relative viability (NCI-H1975; first compound 0.1265 µM): 0.875
relative viability (NCI-H1975; first compound 0.4 µM): 0.794
relative viability (NCI-H1975; first compound 1.265 µM): 0.729
relative viability (COR-L 105; first compound 0.04 µM): 0.304
relative viability (COR-L 105; first compound 0.1265 µM): 0.36
relative viability (COR-L 105; first compound 0.4 µM): 0.357
relative viability (COR-L 105; first compound 1.265 µM): 0.36
relative viability (NCI-H1915; first compound 0.04 µM): 0.445
relative viability (NCI-H1915; first compound 0.1265 µM): 0.427
relative viability (NCI-H1915; first compound 0.4 µM): 0.364
relative viability (NCI-H1915; first compound 1.265 µM): 0.275
relative viability (NCI-H2085; first compound 0.04 µM): 0.772
relative viability (NCI-H2085; first compound 0.1265 µM): 0.829
relative viability (NCI-H2085; first compound 0.4 µM): 0.598
relative viability (NCI-H2085; first compound 1.265 µM): 0.52
relative viability (UMC-11; first compound 0.04 µM): 0.189
relative viability (UMC-11; first compound 0.1265 µM): 0.197
relative viability (UMC-11; first compound 0.4 µM): 0.199
relative viability (UMC-11; first compound 1.265 µM): 0.191
relative viability (ChaGo-K-1; first compound 0.04 µM): 0.213
relative viability (ChaGo-K-1; first compound 0.1265 µM): 0.225
relative viability (ChaGo-K-1; first compound 0.4 µM): 0.242
relative viability (ChaGo-K-1; first compound 1.265 µM): 0.215
relative viability (NCI-H3122; first compound 0.04 µM): 0.568
relative viability (NCI-H3122; first compound 0.1265 µM): 0.45
relative viability (NCI-H3122; first compound 0.4 µM): 0.407
relative viability (NCI-H3122; first compound 1.265 µM): 0.326
relative viability (NCI-H322M; first compound 0.04 µM): 0.472
relative viability (NCI-H322M; first compound 0.1265 µM): 0.521
relative viability (NCI-H322M; first compound 0.4 µM): 0.452
relative viability (NCI-H322M; first compound 1.265 µM): 0.437
relative viability (NCI-H1993; first compound 0.04 µM): 0.556
relative viability (NCI-H1993; first compound 0.1265 µM): 0.604
relative viability (NCI-H1993; first compound 0.4 µM): 0.55
relative viability (NCI-H1993; first compound 1.265 µM): 0.606
relative viability (HOP-62; first compound 0.04 µM): 0.393
relative viability (HOP-62; first compound 0.1265 µM): 0.332
relative viability (HOP-62; first compound 0.4 µM): 0.304
relative viability (HOP-62; first compound 1.265 µM): 0.308
relative viability (NCI-H2023; first compound 0.04 µM): 0.374
relative viability (NCI-H2023; first compound 0.1265 µM): 0.39
relative viability (NCI-H2023; first compound 0.4 µM): 0.318
relative viability (NCI-H2023; first compound 1.265 µM): 0.242
relative viability (NCI-H1755; first compound 0.04 µM): 0.609
relative viability (NCI-H1755; first compound 0.1265 µM): 0.628
relative viability (NCI-H1755; first compound 0.4 µM): 0.514
relative viability (NCI-H1755; first compound 1.265 µM): 0.509
relative viability (EMC-BAC-2; first compound 0.04 µM): 0.29
relative viability (EMC-BAC-2; first compound 0.1265 µM): 0.283
relative viability (EMC-BAC-2; first compound 0.4 µM): 0.272
relative viability (EMC-BAC-2; first compound 1.265 µM): 0.272
relative viability (NCI-H1666; first compound 0.04 µM): 0.627
relative viability (NCI-H1666; first compound 0.1265 µM): 0.587
relative viability (NCI-H1666; first compound 0.4 µM): 0.546
relative viability (NCI-H1666; first compound 1.265 µM): 0.419
